Laboratory results reported in ChEMBL document CHEMBL5247574, “Recent Progress on Bile Acid Receptor Modulators for Treatment of Metabolic Diseases” (J Med Chem, 2016).

Legend:
[1] = target: T1, G-protein coupled bile acid receptor 1 (Homo sapiens, UniProt Q8TDU6); experiment: Agonist activity at TGR5 in human HEK293 cells assessed as increase in cAMP production; format: cell-based
T1 sequence (Q8TDU6 whole entry): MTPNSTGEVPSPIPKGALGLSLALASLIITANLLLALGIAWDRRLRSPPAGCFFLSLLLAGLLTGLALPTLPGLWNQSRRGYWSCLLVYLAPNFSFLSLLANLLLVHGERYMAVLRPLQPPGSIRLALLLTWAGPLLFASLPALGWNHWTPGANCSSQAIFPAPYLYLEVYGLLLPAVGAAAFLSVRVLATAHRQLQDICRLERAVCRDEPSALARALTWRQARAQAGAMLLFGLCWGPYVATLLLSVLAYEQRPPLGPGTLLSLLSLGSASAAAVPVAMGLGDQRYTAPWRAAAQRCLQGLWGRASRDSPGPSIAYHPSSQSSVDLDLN

[2] = target: T2, G-protein coupled bile acid receptor 1 (Mus musculus, UniProt Q80SS6); experiment: Agonist activity at mouse TGR5
T2 sequence (Q80SS6 whole entry): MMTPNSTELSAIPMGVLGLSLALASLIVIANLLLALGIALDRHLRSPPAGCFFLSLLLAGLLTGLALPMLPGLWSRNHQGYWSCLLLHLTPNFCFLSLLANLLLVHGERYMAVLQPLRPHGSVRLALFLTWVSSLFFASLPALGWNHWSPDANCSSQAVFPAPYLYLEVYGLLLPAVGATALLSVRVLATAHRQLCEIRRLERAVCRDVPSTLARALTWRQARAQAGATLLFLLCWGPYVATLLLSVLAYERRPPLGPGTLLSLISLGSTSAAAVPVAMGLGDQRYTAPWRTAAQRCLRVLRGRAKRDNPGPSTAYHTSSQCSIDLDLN

[3] = target: T3, Bile acid receptor (Homo sapiens, UniProt Q96RI1); experiment: Agonist activity at FXR (unknown origin)
T3 sequence (Q96RI1 whole entry): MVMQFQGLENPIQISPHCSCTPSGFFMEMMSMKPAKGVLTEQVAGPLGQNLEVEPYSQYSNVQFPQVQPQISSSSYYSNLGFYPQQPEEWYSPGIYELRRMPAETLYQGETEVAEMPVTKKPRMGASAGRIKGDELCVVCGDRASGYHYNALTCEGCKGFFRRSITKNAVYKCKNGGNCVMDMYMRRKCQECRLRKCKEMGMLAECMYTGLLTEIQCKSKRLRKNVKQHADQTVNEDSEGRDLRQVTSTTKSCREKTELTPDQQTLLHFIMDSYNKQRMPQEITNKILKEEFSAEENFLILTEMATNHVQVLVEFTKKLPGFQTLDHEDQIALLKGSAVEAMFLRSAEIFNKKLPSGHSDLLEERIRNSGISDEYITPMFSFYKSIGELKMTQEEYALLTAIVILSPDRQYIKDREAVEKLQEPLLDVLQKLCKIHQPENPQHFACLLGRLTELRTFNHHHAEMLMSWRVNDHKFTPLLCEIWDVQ

[4] = target: T4, Bile acid receptor (Homo sapiens) (UniProt Q96RI1); experiment: Agonist activity at FXR (unknown origin) by alphascreen assay; conditions: filed as agonist
T4 sequence (whole entry): T3 sequence (Q96RI1 whole entry)

[5] = target: T5, G-protein coupled bile acid receptor 1 (Rattus norvegicus) (UniProt Q80T02); experiment: Agonist activity at TGR5 in rat Primary intestinal cell assessed as stimulation of GLP-1 secretion at 30 uM relative to control; format: cell-based; conditions: filed as agonist
T5 sequence (whole entry): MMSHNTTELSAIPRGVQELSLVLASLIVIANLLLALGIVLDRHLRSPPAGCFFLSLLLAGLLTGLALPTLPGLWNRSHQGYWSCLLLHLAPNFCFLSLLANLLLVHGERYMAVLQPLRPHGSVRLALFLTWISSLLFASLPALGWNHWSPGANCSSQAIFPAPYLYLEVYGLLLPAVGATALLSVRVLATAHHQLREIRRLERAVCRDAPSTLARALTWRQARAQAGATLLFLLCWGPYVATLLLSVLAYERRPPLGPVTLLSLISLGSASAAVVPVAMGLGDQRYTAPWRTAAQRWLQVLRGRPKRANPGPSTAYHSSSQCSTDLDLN

[6] = target: T6, G-protein coupled bile acid receptor 1 (Mus musculus) (UniProt Q80SS6); experiment: In vivo agonist activity at TGR5 in mouse assessed as reduction in blood glucose level at 30 mg/kg, po relative to control; format: functional, organism-based; design: scale not given: the % may be the effect or the level left
T6 sequence (whole entry): T2 sequence (Q80SS6 whole entry)

[7] = target: T6, G-protein coupled bile acid receptor 1 (Mus musculus); experiment: In vivo agonist activity at TGR5 in mouse assessed as increase in insulin level at 30 mg/kg, po relative to control
[8] = target: T6, G-protein coupled bile acid receptor 1 (Mus musculus); experiment: In vivo agonist activity at TGR5 in mouse assessed as increase in GLP-1 secretion level at 30 mg/kg, po relative to control
[9] = target: T7, G-protein coupled bile acid receptor 1 (Homo sapiens) (UniProt Q8TDU6); experiment: Agonist activity at human TGR5 transfected in CHO cells assessed as increase in cAMP production at 1 uM relative to control; format: cell-based; conditions: filed as agonist
T7 sequence (whole entry): T1 sequence (Q8TDU6 whole entry)

[10] = Aqueous solubility of compound; format: physicochemical; conditions: buffer
[11] = Clearance in mouse liver microsomes; format: ADME, Microsome; conditions: microsomes
[12] = Clearance in human liver microsomes; format: ADME, Microsome; conditions: microsomes
[13] = target: T3, Bile acid receptor; experiment: Antagonist activity at FXR (unknown origin) by HTFR assay
[14] = target: T1, G-protein coupled bile acid receptor 1; experiment: Agonist activity at human TGR5 transfected in CHO cells assessed as increase in cAMP production; format: cell-based
[15] = target: T3, Bile acid receptor; experiment: Antagonist activity at FXR in human HepG2 cells in presence of CDCA by luciferase reporter assay; format: cell-based
[16] = target: T1, G-protein coupled bile acid receptor 1; experiment: Agonist activity at human TGR5; conditions: read-out: pEC50 (converted)
[17] = target: T1, G-protein coupled bile acid receptor 1; experiment: Agonist activity at human TGR5 expressed in human HEK293 cells measured after 5.5 hrs by steady-glo luciferase assay; format: cell-based
[18] = target: T7, G-protein coupled bile acid receptor 1 (Homo sapiens); experiment: Agonist activity at human TGR5 expressed in human HEK293 cells at 20 uM measured after 5.5 hrs by steady-glo luciferase assay relative to control; format: cell-based; conditions: filed as agonist
[19] = target: T1, G-protein coupled bile acid receptor 1; experiment: Agonist activity at human TGR5 transfected in CHO-K1 cells assessed as increase in cAMP production; format: cell-based
[20] = target: T7, G-protein coupled bile acid receptor 1 (Homo sapiens); experiment: Agonist activity at human TGR5 transfected in human NCI-H716 cells assessed as increase in GLP-1 secretion at 5 uM relative to control; format: cell-based; conditions: filed as agonist
[21] = target: T7, G-protein coupled bile acid receptor 1 (Homo sapiens); experiment: Agonist activity at human TGR5 transfected in human NCI-H716 cells assessed as increase in cAMP production at 10 uM relative to control; format: cell-based; conditions: filed as agonist
[22] = target: T3, Bile acid receptor; experiment: Agonist activity at human GST-tagged FXR LBD (193 to 472 residues) by FRET assay

## Fc1ccc(-n2c(COc3cccc4cnccc34)nc3ccccc32)c(Cl)c1
[1]
  EC50: 229 nM

## O=C(c1cccnc1Oc1cccc(C(F)(F)F)c1)N1CCCc2ccccc21
[2]
  EC50: 2020 nM

## O=C(Nc1cc(Cl)ccc1-c1nc2cc(F)c(F)cc2n1CC1CCCCC1)c1ccc(-c2nnn[nH]2)cc1F
[3]
  IC50: 0.4 nM

## CC[C@H]1[C@@H](O)C2C3CC[C@H](C(C)CCOS(=O)(=O)O)[C@@]3(C)CCC2[C@@]2(C)CC[C@@H](O)C[C@@H]12 (some centres not stated)
[4]
  Activity: 30 nM

## CN1CC(C)(C)N(C(=O)COc2cccc3cnccc23)c2ccc(F)cc21
[5]
  Activity: 251%

## O=c1c2ccccc2nc(-c2ccc(F)cc2)n1NCc1ccc(Br)cc1
[6]
  Activity: 52%
[1]
  EC50: < 10000 nM
[7]
  Activity: 130%
[8]
  Activity: 70%

## O=C(c1cc(C(F)(F)F)cc(C(F)(F)F)c1)N1CCOc2nccc(-c3ccccc3)c2C1
[9]
  Activity: 100%

## CC(C)n1ncc2cc(CNCc3ccc(C(F)(F)F)cc3)c(-c3ccsc3)cc21
[1]
  EC50: < 10000 nM

## O=C(c1cccnc1Oc1cc(Cl)ccc1Cl)N1CCCc2ccccc21
[10]
  solubility: < 1 µg/mL
[11]
  CLH: 2134 mL/min/g
[2]
  EC50: 2560 nM
[12]
  CLH: 1418 mL/min/g

## O=C(O)c1ccccc1-c1ccc(Cn2ccc(OCc3c(-c4c(Cl)cccc4Cl)noc3-c3cccs3)n2)cc1
[13]
  IC50: 4200 nM

## Cc1cc(/C(C[C@H](c2ccc(C3C[C@@H]4C(C(=O)O)[C@@H]4C3)cc2)c2ccc(F)cc2F)=N\O)ccn1 (some centres not stated)
[14]
  EC50: 1 nM

## CC[C@@H](CC[C@@H](C)[C@H]1CCC2=C3CC[C@H]4C(C)=CCC[C@]4(C)C3CC[C@@]21C)C(C)C (some centres not stated)
[15]
  IC50: 35000 nM

## COc1ccc(S(=O)(=O)N2CCCN(S(=O)(=O)c3ccc(OC)c(OC)c3)CC2)cc1OC [SB-756050]
[16]
  EC50: 1000 nM

## Fc1cccc(F)c1-c1ccncc1CN1C(c2ccco2)=NO[C@@H]1c1cc(C(F)(F)F)cc(C(F)(F)F)c1Cl
[17]
  EC50: 1.4 nM
[18]
  Activity: 96%

## Cc1c(Cl)cccc1OCCCC(=O)N1CCC(Cc2cccc(C(=O)NCCS(=O)(=O)O)c2)c2ccccc21 (configuration not stated)
[19]
  EC50: 24 nM

## Cc1noc2cc(Cl)c(Oc3ccncc3C(=O)N3CCN(C4CC4)c4ccccc43)cc12
[1]
  EC50: 0.43 nM

## CNc1cccc([C@H]2O[C@H](CC(=O)Nc3ccccc3F)C(=O)N(CC(C)C)c3ccccc32)c1
[20]
  Activity: 157%
[21]
  Activity: 100%

## FC(F)(F)c1ccc(CNCc2cc3ccsc3nc2-c2ccsc2)cc1
[1]
  EC50: < 10000 nM

## COc1cc(F)ccc1-c1ccncc1N(C)C(=O)c1cc(C(F)(F)F)cc(S(=O)(=O)N2CC3(COC3)C2)c1
[14]
  EC50: 9 nM

## Cc1ccc(-c2csc3nnc(SCc4c(F)cccc4Cl)n23)cc1
[1]
  EC50: < 0.5 nM

## O=C(O)c1ccc2nc(N3CCC(OCc4c([C@H]5CCCC[C@@H]5C(F)(F)F)noc4C4CC4)CC3)sc2c1 (stereo in doubt; form 2)
[22]
  EC50: 245 nM

## O=c1c2cccnc2nc(-c2cncc(Cl)c2)n1NCc1ccc(Cl)cc1F
[1]
  EC50: < 10000 nM

## Fc1ccccc1-c1ccncc1CN1C(c2ccco2)=NOC1c1cc(C(F)(F)F)cc(C(F)(F)F)c1 (configuration not stated)
[17]
  EC50: 15 nM
[18]
  Activity: 102%
